ChEMBL document CHEMBL1127329, “6-(1H-imidazol-1-yl)-7-nitro-2,3(1H,4H)-quinoxalinedione hydrochloride (YM90K) and related compounds: structure-activity relationships for the AMPA-type non-NMDA receptor” (J Med Chem, 1994)

Columns and labels:
[1] = target: Glutamate receptor ionotropic, AMPA (Rattus norvegicus, UniProt P19490+P19491+P19492+P19493)
Description: Binding affinity against AMPA receptor in rat brain membrane using [3H]-AMPA as radioligand

[2] = target: T1, Glutamate receptor ionotropic, AMPA (Rattus norvegicus) (UniProt P19491+P19492+P19493+P19490); assay: Ability to inhibit [3H]AMPA binding to AMPA receptor in rat whole brain at 1 uM concentration
[3] = target: Glutamate receptor ionotropic, kainate; assay: Binding affinity against kainate receptor in rat brain membrane using [3H]kainate as radioligand; type: cell membranes
[4] = target: Glutamate NMDA receptor; assay: Binding affinity of compound against NMDA receptor binding site in rat brain membrane using [3H]glutamate as radioligand; type: cell membranes
[5] = target: Glutamate NMDA receptor; assay: Binding affinity of compound against strychnine-insensitive glycine site on NMDA receptor in rat brain membrane using [3H]glycine as radioligand; type: cell membranes
[6] = target: T1, Glutamate receptor ionotropic, AMPA (Rattus norvegicus); assay: Ability to inhibit [3H]AMPA binding to AMPA receptor in rat whole brain at 100 uM concentration; type: tissue-based

Row | SMILES | Ki [1] | other results
1 | O=[N+]([O-])c1cc2nc(O)c(O)nc2cc1-c1cccnc1 | 620 nM | –
2 | O=[N+]([O-])c1cc2nc(O)c(O)nc2cc1-n1cccn1 | 1400 nM | –
3 | Cc1cc2nc(O)c(O)nc2cc1-n1ccnc1 | – | inhibition [2]: 14%
4 | Cc1ccc2nc(O)c(O)nc2c1 | – | inhibition [6]: 28%
5 | Oc1nc2cc(-n3ccnc3)c(C(F)(F)F)cc2nc1O | 200 nM | –
6 | NS(=O)(=O)c1cccc2c1c([N+](=O)[O-])cc1nc(O)c(O)nc12 [NBQX] | – | Ki [4]: > 100 µM; Ki [5]: > 100 µM
7 | N#Cc1cc2nc(O)c(O)nc2cc1-n1ccnc1 | 200 nM | –
8 | Nc1cc2nc(O)c(O)nc2cc1-n1ccnc1 | – | inhibition [2]: 16%
9 | Oc1nc2ccccc2nc1O | – | inhibition [6]: 24%
10 | O=[N+]([O-])c1cc2nc(O)c(O)nc2cc1-n1cnc(-c2ccccc2)c1 | 230 nM | –
11 | CC(=O)c1cc2nc(O)c(O)nc2cc1-n1ccnc1 | – | inhibition [2]: 36%
12 | Oc1nc2cc(-n3ccnc3)c(-n3ccnc3)cc2nc1O | 820 nM | –
13 | Oc1nc2ccc(-n3ccnc3)c(C(F)(F)F)c2nc1O | – | inhibition [2]: 10%
14 | O=[N+]([O-])c1cn(-c2cc3nc(O)c(O)nc3cc2[N+](=O)[O-])cn1 | 100 nM | –
15 | Oc1nc2cc(F)c(-n3ccnc3)cc2nc1O | – | inhibition [2]: 14%
16 | N#Cc1cc2c(cc1[N+](=O)[O-])=NC(=O)C(=O)N=2 | – | Ki [3]: 1800 nM; Ki [4]: 25 µM; Ki [5]: 5.6 µM
17 | O=[N+]([O-])c1cc2nc(O)c(O)nc2cc1-n1cncn1 | 240 nM | –
18 | O=[N+]([O-])c1ccc2nc(O)c(O)nc2c1 | 2000 nM | –
19 | Cc1cn(-c2cc3nc(O)c(O)nc3cc2[N+](=O)[O-])cn1 | 180 nM | –
20 | N#Cc1ccc2nc(O)c(O)nc2c1 | 5000 nM | –
21 | O=[N+]([O-])c1cc2nc(O)c(O)nc2cc1-c1c[nH]cn1 | 690 nM | –
22 | O=[N+]([O-])c1cc(-n2ccnc2)cc2nc(O)c(O)nc12 | 1900 nM | –

Second part, led by results:

Row | Ki [1] | SMILES | other results
23 | 390 nM | CCc1nccn1-c1cc2nc(O)c(O)nc2cc1[N+](=O)[O-] | –
24 | 430 nM | Cc1nccn1-c1cc2nc(O)c(O)nc2cc1[N+](=O)[O-] | –
25 | 84 nM | O=c1[nH]c2cc(-n3ccnc3)c([N+](=O)[O-])cc2[nH]c1=O [YM-90K] | Ki [3]: 2200 nM; Ki [4]: > 100 µM; Ki [5]: 37 µM
26 | 1300 nM | O=[N+]([O-])c1cc2nc(O)c(O)nc2cc1-n1cnc2ccccc21 | –
27 | 4800 nM | O=[N+]([O-])c1cc2nc(O)c(O)nc2cc1-n1cnc2c1CCCC2 | –
28 | 1600 nM | Oc1nc2ccc(-n3ccnc3)cc2nc1O | –
